Experimental data as given in patent US11858941B2, “Heterocyclic and heteroaryl compounds for treating Huntington's disease” (PTC THERAPEUTICS, INC., priority 2018, dated 2024).

Test system: Endogenous Huntingtin Protein
Test: Endogenous Huntingtin Protein Assay (Meso Scale Discovery ELISA-based electrochemiluminescence)
Type: cell-based
Details: MSD plates coated with MW1 (expanded polyglutamine) or MAB2166 capture antibody; lysates
Procedure: Compounds of Formula (I) were tested using the Meso Scale Discovery (MSD) Assay provided in International Application No. PCT/US2016/066042, filed on Dec. 11, 2016 and claiming priority to United States Provisional Application U.S. 62/265,652 filed on Dec. 10, 2015, the entire contents of which are incorporated herein by reference.
The Endogenous Huntingtin Protein assay used in Example 1 was developed using the ELISA-based MSD electrochemiluminescence assay platform.
Endogenous Huntingtin Protein Assay
Meso Scale Discovery (MSD) 96-well or 384-well plates were coated overnight at 4° C. with MW1 (expanded polyglutamine) or MAB2166 monoclonal antibody (for capture) at a concentration of 1 μg/mL in PBS (30 μL per well). Plates were then washed three times with 300 μL wash buffer (0.05% Tween-20 in PBS) and blocked (100 μL blocking buffer; 5% BSA in PBS) for 4-5 hours at room temperature with rotational shaking and then washed three times with wash buffer.
Samples (25 μL) were transferred to the antibody-coated MSD plate and incubated overnight at 4° C. After removal of the lysates, the plate was washed three times with wash buffer, and 25 μL of #5656S (Cell signaling; rabbit monoclonal) secondary antibody (diluted to 0.25 μg/mL in 0.05% Tween-20 in blocking buffer) was added to each well and incubated with shaking for 1 Hour at room temperature. Following incubation with the secondary antibody, the wells were rinsed with wash buffer after which 25 μL of goat anti-rabbit SULFO TAG secondary detection antibody (required aspect of the MSD system) (diluted to 0.25 μg/mL in 0.05% Tween-20 in blocking buffer) was added to each well and incubated with shaking for 1 hour at room temperature. After rinsing three times with wash buffer, 150 μL of read buffer T with surfactant (MSD) were added to each empty well, and the plate was imaged on a SI 6000 imager (MSD) according to manufacturers' instructions provided for 96- or 384-well plates.

Row | Compound | IC50 [nM]
1 | CC1(C)CC(n2nnc3cc(-c4ccc(-n5cccn5)cc4O)nnc32)CC(C)(C)N1 [Cpd 34, 5-(1H-pyrazol-1-yl)-2-[3-(2,2,6,6-tetramethylpiperidin-4-yl)-3H-[1,2,3]triazolo[4,5-c]pyridazin-6-yl]phenol] | 100 to 500
2 | Fc1c(-c2cn[nH]c2)ccc(-c2cc3c(nn2)N(C2CC4CCC(C2)N4)CC3)c1F (stereo not drawn) [Cpd 36, 7-[(3-exo)-8-azabicyclo[3.2.1]oct-3-yl]-3-[2,3-difluoro-4-(1H-pyrazol-4-yl)phenyl]-6,7-dihydro-5H-pyrrolo[2,3-c]pyridazine] | 100 to 500
3 | COc1nc2cc(-c3ccc(-c4cn[nH]c4)cc3O)nnc2n1C1CC(C)(C)NC(C)(C)C1 [Cpd 40, 2-[6-methoxy-7-(2,2,6,6-tetramethylpiperidin-4-yl)-7H-imidazo[4,5-c]pyridazin-3-yl]-5-(1H-pyrazol-4-yl)phenol] | 3000 to 9000
4 | CNc1nc2cc(-c3ccc(-c4cn[nH]c4)cc3O)nnc2n1C1CC(C)(C)NC(C)(C)C1 [Cpd 42, 2-[6-(methylamino)-7-(2,2,6,6-tetramethylpiperidin-4-yl)-7H-imidazo[4,5-c]pyridazin-3-yl]-5-(1H-pyrazol-4-yl)phenol] | 100 to 500
5 | Oc1cc(-c2cn[nH]c2)ccc1-c1cc2[nH]cc(N3CCNCC3)c2nn1 [Cpd 43, 2-[7-(piperazin-1-yl)-5H-pyrrolo[3,2-c]pyridazin-3-yl]-5-(1H-pyrazol-4-yl)phenol] | 500 to 1000
6 | CCCn1cc(-c2ccc(-c3cc4nnn(C5CC(C)(C)NC(C)(C)C5)c4nn3)c(O)c2)cn1 [Cpd 47, 5-(1-propyl-1H-pyrazol-4-yl)-2-[3-(2,2,6,6-tetramethylpiperidin-4-yl)-3H-[1,2,3]triazolo[4,5-c]pyridazin-6-yl]phenol] | 1000 to 3000
7 | CCNc1nc2cc(-c3ccc(-c4cn[nH]c4)cc3O)nnc2n1C1CC(C)(C)NC(C)(C)C1 [Cpd 49, 2-[6-(ethylamino)-7-(2,2,6,6-tetramethylpiperidin-4-yl)-7H-imidazo[4,5-c]pyridazin-3-yl]-5-(1H-pyrazol-4-yl)phenol] | 1000 to 3000
8 | CN1C(C)(C)CC(n2nnc3cc(-c4ccc(-c5cn[nH]c5)cc4O)nnc32)CC1(C)C [Cpd 52, 2-[3-(1,2,2,6,6-pentamethylpiperidin-4-yl)-3H-[1,2,3]triazolo[4,5-c]pyridazin-6-yl]-5-(1H-pyrazol-4-yl)phenol] | 500 to 1000
9 | CC1(C)CC(n2nnc3cc(-c4ccc(-c5cn[nH]c5)cc4O)nnc32)CCN1 (stereo not drawn) [Cpd 56, 2-[3-(2,2-dimethylpiperidin-4-yl)-3H-[1,2,3]triazolo[4,5-c]pyridazin-6-yl]-5-(1H-pyrazol-4-yl)phenol] | 100 to 500
10 | C[C@]12CC[C@](C)(CC(n3nnc4cc(-c5ccc(-c6cn[nH]c6)cc5O)nnc43)C1)N2 (stereo partly drawn) [Cpd 57, 2-{3-[(1R,5S)-1,5-dimethyl-8-azabicyclo[3.2.1]octan-3-yl]-3H-[1,2,3]triazolo[4,5-c]pyridazin-6-yl}-5-(1H-pyrazol-4-yl)phenol] | ≤ 100
11 | CC1(C)CC(n2nnc3cc(-c4c(O)cc(-c5cn[nH]c5)cc4F)nnc32)CC(C)(C)N1 [Cpd 59, 3-fluoro-5-(1H-pyrazol-4-yl)-2-[3-(2,2,6,6-tetramethylpiperidin-4-yl)-3H-[1,2,3]triazolo[4,5-c]pyridazin-6-yl]phenol] | ≤ 100
12 | CC1(C)CC(n2nnc3cc(-c4ccc(-n5cncn5)cc4O)nnc32)CC(C)(C)N1 [Cpd 63, 2-[3-(2,2,6,6-tetramethylpiperidin-4-yl)-3H-[1,2,3]triazolo[4,5-c]pyridazin-6-yl]-5-(1H-1,2,4-triazol-1-yl)phenol] | ≤ 100
13 | CC1(C)CC(n2nnc3cc(-c4ccc(-n5cnnc5)cc4O)nnc32)CC(C)(C)N1 [Cpd 64, 2-[3-(2,2,6,6-tetramethylpiperidin-4-yl)-3H-[1,2,3]triazolo[4,5-c]pyridazin-6-yl]-5-(4H-1,2,4-triazol-4-yl)phenol] | 1000 to 3000

Second part, the molecule after the results:

Row | IC50 [nM] | Compound
14 | 500 to 1000 | CC1(C)CC(n2nnc3cc(-c4cc(O)c(-c5cn[nH]c5)cc4F)nnc32)CC(C)(C)N1 [Cpd 33, 4-fluoro-2-(1H-pyrazol-4-yl)-5-[3-(2,2,6,6-tetramethylpiperidin-4-yl)-3H-[1,2,3]triazolo[4,5-c]pyridazin-6-yl]phenol]
15 | ≤ 100 | CC1(C)CC(n2nnc3cc(-c4cc(F)c(-c5cn[nH]c5)cc4O)nnc32)CC(C)(C)N1 [Cpd 35, 4-fluoro-5-(1H-pyrazol-4-yl)-2-[3-(2,2,6,6-tetramethylpiperidin-4-yl)-3H-[1,2,3]triazolo[4,5-c]pyridazin-6-yl]phenol]
16 | ≤ 100 | Cn1ccc(-c2ccc(-c3cc4nnn(C5CC(C)(C)NC(C)(C)C5)c4nn3)c(O)c2)cc1=O [Cpd 37, 4-{3-hydroxy-4-[3-(2,2,6,6-tetramethylpiperidin-4-yl)-3H-[1,2,3]triazolo[4,5-c]pyridazin-6-yl]phenyl}-1-methylpyridin-2(1H)-one]
17 | ≤ 100 | CC1(C)CC(n2nnc3cc(-c4ccc(-c5ccc(O)cc5)cc4O)nnc32)CC(C)(C)N1 [Cpd 38, 4-[3-(2,2,6,6-tetramethylpiperidin-4-yl)-3H-[1,2,3]triazolo[4,5-c]pyridazin-6-yl]biphenyl-3,4′-diol]
18 | ≤ 100 | Cn1cc(-c2ccc(-c3cc4nnn(C5CC(C)(C)NC(C)(C)C5)c4nn3)c(O)c2)cn1 [Cpd 39, 5-(1-methyl-1H-pyrazol-4-yl)-2-[3-(2,2,6,6-tetramethylpiperidin-4-yl)-3H-[1,2,3]triazolo[4,5-c]pyridazin-6-yl]phenol]
19 | 500 to 1000 | CCn1cc(-c2ccc(-c3cc4nnn(C5CC(C)(C)NC(C)(C)C5)c4nn3)c(O)c2)cn1 [Cpd 46, 5-(1-ethyl-1H-pyrazol-4-yl)-2-[3-(2,2,6,6-tetramethylpiperidin-4-yl)-3H-[1,2,3]triazolo[4,5-c]pyridazin-6-yl]phenol]
20 | 100 to 500 | CC1(C)CC(n2nnc3cc(-c4ccc(-c5cc[nH]n5)cc4O)nnc32)CC(C)(C)N1 [Cpd 48, 5-(1H-pyrazol-3-yl)-2-[3-(2,2,6,6-tetramethylpiperidin-4-yl)-3H-[1,2,3]triazolo[4,5-c]pyridazin-6-yl]phenol]
21 | 100 to 500 | Cn1nccc1-c1ccc(-c2cc3nnn(C4CC(C)(C)NC(C)(C)C4)c3nn2)c(O)c1 [Cpd 50, 5-(1-methyl-1H-pyrazol-5-yl)-2-[3-(2,2,6,6-tetramethylpiperidin-4-yl)-3H-[1,2,3]triazolo[4,5-c]pyridazin-6-yl]phenol]
22 | 100 to 500 | Cn1ccc(-c2ccc(-c3cc4nnn(C5CC(C)(C)NC(C)(C)C5)c4nn3)c(O)c2)n1 [Cpd 51, 5-(1-methyl-1H-pyrazol-3-yl)-2-[3-(2,2,6,6-tetramethylpiperidin-4-yl)-3H-[1,2,3]triazolo[4,5-c]pyridazin-6-yl]phenol]
23 | ≤ 100 | CC1(C)CC(n2nnc3cc(-c4cc(F)c(-c5ccc(O)cc5)cc4O)nnc32)CC(C)(C)N1 [Cpd 53, 6-fluoro-4-[3-(2,2,6,6-tetramethylpiperidin-4-yl)-3H-[1,2,3]triazolo[4,5-c]pyridazin-6-yl][1,1′-biphenyl]-3,4′-diol]
24 | ≤ 100 | CC1(C)CC(n2nnc3cc(-c4ccc(-c5cn[nH]c5)c(F)c4O)nnc32)CC(C)(C)N1 [Cpd 54, 2-fluoro-3-(1H-pyrazol-4-yl)-6-[3-(2,2,6,6-tetramethylpiperidin-4-yl)-3H-[1,2,3]triazolo[4,5-c]pyridazin-6-yl]phenol]
25 | 100 to 500 | Cn1ccc(-c2cc(O)c(-c3cc4nnn(C5CC(C)(C)NC(C)(C)C5)c4nn3)cc2F)cc1=O [Cpd 55, 4-{2-fluoro-5-hydroxy-4-[3-(2,2,6,6-tetramethylpiperidin-4-yl)-3H-[1,2,3]triazolo[4,5-c]pyridazin-6-yl]phenyl}-1-methylpyridin-2(1H)-one]
26 | 100 to 500 | CC1(C)CC(n2nnc3cc(-c4cc(O)c(-c5cn[nH]c5)cc4O)nnc32)CC(C)(C)N1 [Cpd 58, 2-(1H-pyrazol-4-yl)-5-[3-(2,2,6,6-tetramethylpiperidin-4-yl)-3H-[1,2,3]triazolo[4,5-c]pyridazin-6-yl]benzene-1,4-diol]
27 | 1000 to 3000 | CC1(C)CC(n2nnc3cc(-c4ccc(-c5cnccn5)cc4O)nnc32)CC(C)(C)N1 [Cpd 60, 5-(pyrazin-2-yl)-2-[3-(2,2,6,6-tetramethylpiperidin-4-yl)-3H-[1,2,3]triazolo[4,5-c]pyridazin-6-yl]phenol]
28 | 1000 to 3000 | CC1(C)CC(n2nnc3cc(-c4ccc(-c5ccccn5)cc4O)nnc32)CC(C)(C)N1 [Cpd 61, 5-(pyridin-2-yl)-2-[3-(2,2,6,6-tetramethylpiperidin-4-yl)-3H-[1,2,3]triazolo[4,5-c]pyridazin-6-yl]phenol]
29 | ≤ 100 | Cn1cc(-c2cc(O)c(-c3cc4nnn(C5CC(C)(C)NC(C)(C)C5)c4nn3)cc2F)cn1 [Cpd 62, 4-fluoro-5-(1-methyl-1H-pyrazol-4-yl)-2-[3-(2,2,6,6-tetramethylpiperidin-4-yl)-3H-[1,2,3]triazolo[4,5-c]pyridazin-6-yl]phenol]
30 | 500 to 1000 | CC1(C)CC(n2nnc3cc(-c4ccc(-c5cccnc5)cc4O)nnc32)CC(C)(C)N1 [Cpd 65, 5-(pyridin-3-yl)-2-[3-(2,2,6,6-tetramethylpiperidin-4-yl)-3H-[1,2,3]triazolo[4,5-c]pyridazin-6-yl]phenol]
